According to patent US20210030802A1, “GLUCOCORTICOID-RESISTANT LEUKOCYTES AND THEIR USE IN THE TREATMENT OF CANCERS AND VIRUSES” (CONSTANT BIOTECHNOLOGY, LLC, priority 2018, published 2021):

Key:
RS4;11 cells = test: Survival of lenti-transduced cells in presence of steroids with or without HSD inhibitor (CELLTITER-GLO); assay type: cell-based, human; conditions: HSD11B2-transduced RS4;11 cells; for Effect of HSD inhibitor on steroid protection of transduced cells: DEX or PRED, carbenoxolone 1 μM and 10 μM; for Reversal of protection against dexamethasone by HSD inhibitor / Reversal of protection against prednisolone by HSD inhibitor: posaconazole 1 μM, carbenoxolone 10 μM or 1 μM
HSD11B2 = target: T1, HSD11B2 (Homo sapiens, UniProt P80365); test: Effect of HSD inhibitor on steroid degradation by HSD11B2-transduced stimulated leukocytes; assay type: cell-based; conditions: posaconazole 7 μM
T1 construct: expressed in transfected cells
T1 sequence (P80365 1-405): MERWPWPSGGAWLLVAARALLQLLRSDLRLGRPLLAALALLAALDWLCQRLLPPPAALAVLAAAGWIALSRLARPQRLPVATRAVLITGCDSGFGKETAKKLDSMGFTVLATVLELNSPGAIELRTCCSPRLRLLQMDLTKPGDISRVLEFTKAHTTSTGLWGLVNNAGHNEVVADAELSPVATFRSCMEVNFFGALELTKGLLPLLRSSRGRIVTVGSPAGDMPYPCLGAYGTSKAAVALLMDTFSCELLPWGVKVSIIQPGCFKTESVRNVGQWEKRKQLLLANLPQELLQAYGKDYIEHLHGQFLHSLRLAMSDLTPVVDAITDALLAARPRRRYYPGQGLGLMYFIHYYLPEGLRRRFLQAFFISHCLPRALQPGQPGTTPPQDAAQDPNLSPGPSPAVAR

HSD11B1 = target: T2, HSD11B1 (Homo sapiens, UniProt P28845); test: Effect of HSD inhibitor on steroid degradation by HSD11B1-transduced stimulated leukocytes; assay type: cell-based; conditions: posaconazole 7 μM
T2 construct: expressed in transfected cells
T2 sequence (P28845 whole entry): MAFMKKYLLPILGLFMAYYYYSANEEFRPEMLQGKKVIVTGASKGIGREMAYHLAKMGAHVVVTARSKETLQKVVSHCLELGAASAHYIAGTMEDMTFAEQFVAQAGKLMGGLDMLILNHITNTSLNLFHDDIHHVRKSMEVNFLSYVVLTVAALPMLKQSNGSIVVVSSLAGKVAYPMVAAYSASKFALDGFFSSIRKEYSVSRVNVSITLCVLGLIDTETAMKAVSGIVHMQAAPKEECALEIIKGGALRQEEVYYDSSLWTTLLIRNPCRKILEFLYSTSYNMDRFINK

stimulated leukocytes [1] = test: Steroid degradation by lentivirally transduced stimulated leukocytes, steroid detected by ELISA; assay type: cell-based, human
stimulated leukocytes [2] = test: Conversion of cortisol to cortisone by transduced stimulated leukocytes, UHPLC-Mass Spectrometry; assay type: cell-based, human
Experimental: Human peripheral blood leukocytes (HPBL) were prepared by density gradient centrifugation of anti-coagulated human blood (Cincinnati Children's Hospital Cell Processing Core). HPBL were stimulated with CYTOSTIM™, inteleukin 2 (IL-2) in TEXMACS™ media (all reagents, Miltenyi Biotech) according to manufacturer's instructions for three days. […] After stimulation, the entire population of stimulated cells (“stimulated leukocytes”) were cryopreserved in cell freezing media which contained dimethyl sulfoxide (DMSO). Prior to experiments, cryopreserved stimulated leukocytes were thawed, washed twice and cultured in TEXMACS™ media supplemented with 10% (v/v) heat inactivated fetal bovine serum (HI-FBS, VWR). After an overnight incubation, typical cell viability post-thaw was greater than 95% as determined by Trypan blue dye exclusion. Post-thaw, cells were cultured overnight prior to transduction with lentivirus. […]
Viral copy number (VCN) was assessed on cell pellets by real-time polymerase chain reaction (RT-PCR) by extracting the genomic DNA and using primers and probes for the R-U5 region of the lentiviral vector. VCN was determined using a cGMP testing protocol conducted by the Translational Trials Support & Development Laboratory of Cincinnati Children's Hospital. […] To permit direct comparison of the intrinsic activity of each enzyme construct—independent of any variability of target cell transduction or number of transduced cells in an experimental arm—VCN values were combined with the number of live cells measured at the end of incubation to adjust data to reflect a uniform level of cells carrying the transgene.
Cortisol and cortisone levels in supernatants were quantified by the Michigan Regional Comprehensive Metabolomics Resource Core at the University of Michigan, Ann Arbor, Mich., in a delta 4 (D4-) steroid hormone assay using combined ultra-high pressure liquid chromatography and triple quadrapole (UHPLC-QQQ) mass spectrometry. […]

## CC[C@@H]([C@H](C)O)n1ncn(-c2ccc(N3CCN(c4ccc(OC[C@@H]5CO[C@@](Cn6cncn6)(c6ccc(F)cc6F)C5)cc4)CC3)cc2)c1=O [posaconazole]
RS4;11 cells
  Effect of HSD inhibitor on steroid protection of transduced cells: reduced or eliminated
  Reversal of protection against dexamethasone by HSD inhibitor: Protection was reversed
  Reversal of protection against prednisolone by HSD inhibitor: Protection was reversed
HSD11B2
  Inhibition of steroid degradation by HSD11B2 genes (HSD11B2, B2-Tag and wtExon1-none): inhibited
HSD11B1
  Inhibition of HSD11B1 degradation of steroids: also inhibited
  Inhibition of HSD11B1 depletion (conversion) of prednisolone and dexamethasone: strongly inhibited

## CC1(C)[C@@H](OC(=O)CCC(=O)O)CC[C@]2(C)[C@H]3C(=O)C=C4[C@@H]5C[C@@](C)(C(=O)O)CC[C@]5(C)CC[C@@]4(C)[C@]3(C)CC[C@@H]12 [carbenoxolone]
RS4;11 cells
  Effect of HSD inhibitor on steroid protection of transduced cells: reduced or eliminated
  Reversal of protection against dexamethasone by HSD inhibitor: Protection was reversed
  Reversal of protection against prednisolone by HSD inhibitor: Protection was reversed
RS4;11 cells; listed as Carbenoxolone
  Effect of HSD inhibitor on steroid protection of transduced cells: showed a dose response effect

B1: wtExon1-none: modified HSD11B2 gene wherein approximately exon 1 was not codon modified but remained wild type (SEQ ID No.: 31) (nucleic acid)
DNA: CCCCTCACTCGGCGCGATCTAGATCTCGAATCGCCAGCCCGCTGGGCCGCCATGGAGCGCTGGCCTTGGCCGTCGGGCGGCGCCTGGCTGCTCGTGGCTGCCCGCGCGCTGCTGCAGCTGCTGCGCTCAGACCTGCGTCTGGGCCGCCCGCTGCTGGCGGCGCTGGCGCTGCTGGCCGCGCTCGACTGGCTGTGCCAGCGCCTGCTGCCCCCGCCGGCCGCACTCGCCGTGCTGGCCGCCGCCGGCTGGATCGCGTTGTCCCGCCTGGCGCGCCCGCAGCGCCTGCCGGTGGCCACTCGCGCGGTGCTCATCACCGGTTGTGACTCTGGTTTTGGTAAGGAGACGGCTAAGAAACTGGACTCCATGGGTTTCACGGTGCTGGCTACCGTATTGGAGTTGAACAGCCCTGGTGCTATCGAGCTGCGTACCTGCTGCTCCCCTCGTCTAAGGCTGCTGCAGATGGACCTGACCAAACCAGGAGACATTAGCCGTGTGCTAGAGTTCACCAAGGCTCACACCACCAGCACCGGTCTGTGGGGTCTCGTCAACAACGCAGGTCACAATGAAGTAGTTGCTGATGCAGAGCTGTCTCCAGTGGCTACTTTCCGTAGCTGCATGGAGGTGAATTTCTTTGGTGCACTCGAGCTGACCAAGGGTCTCCTGCCTCTGCTGCGTAGCTCAAGGGGTCGTATCGTGACTGTGGGAAGCCCAGCAGGAGACATGCCATATCCATGCTTGGGAGCTTATGGAACCTCCAAAGCAGCTGTGGCACTACTCATGGACACATTCAGCTGTGAACTCCTTCCTTGGGGAGTCAAGGTCAGCATCATCCAGCCTGGTTGCTTCAAGACAGAGTCAGTGAGAAACGTGGGTCAGTGGGAAAAGCGTAAGCAATTGCTGCTGGCTAACCTGCCTCAAGAGCTGCTGCAGGCTTACGGTAAGGACTACATCGAGCACTTGCATGGACAGTTCCTGCACTCGCTACGTCTGGCTATGTCCGACCTCACCCCAGTTGTAGATGCTATCACAGATGCACTGCTGGCAGCTAGGCCTCGTCGTCGTTATTACCCTGGTCAGGGTCTGGGACTCATGTACTTCATCCACTACTACCTGCCTGAAGGTCTGAGGCGTCGTTTCCTGCAGGCTTTCTTCATCAGTCACTGTCTGCCTCGAGCACTGCAGCCTGGTCAGCCTGGTACTACCCCACCACAGGACGCAGCTCAGGACCCAAACCTGAGCCCTGGTCCTTCCCCAGCAGTGGCTAGGTGACCTGAAAAAGGGGTACCTTTAAGACCAATGACTTACAAGGCAGCTGTAG
modifications: wtExon1-none
Stimulated leukocytes [1]; cortisol 100 nM, ELISA
  Cortisol levels at end of assay: below the limit of quantitation
Stimulated leukocytes [1]; steroid 100 nM, 18 to 24 hours, adjusted for number of transgene bearing cells
  Degradation of cortisol, prednisolone and dexamethasone: degraded the steroids
Stimulated leukocytes [1]; transduced leukocytes
  Rate of conversion of prednisolone or dexamethasone: at least 2000 pg/hour/10^5 of genetically modified leukocytes
Stimulated leukocytes [2]; UHPLC-Mass Spectrometry
  Generation of cortisone from cortisol: generated cortisone
Stimulated leukocytes [2]; assuming no inter-conversion
  Rate of cortisol depletion indirectly calculated from cortisone production: about 1,014 pg/hr/10e5 copies of the transgene
Stimulated leukocytes [2]; transduced leukocytes
  Rate of conversion of cortisol to cortisone: 800-1200 pg/hour/10^5 of genetically modified leukocytes
